Data set [1] addresses T1, cloned human 5-HT6 receptor (Homo sapiens, UniProt P50406).
T1 construct: host or cells: HeLa cells (G-418 selection), membrane preparation
Kind of data set: 5-HT6 Receptor Binding Assay. The conditions noted are these: [3H]-lysergic acid diethylamide (LSD) radioligand, membranes of Hela cells containing the cloned human 5-HT6 receptor, SPA beads; estimated IC50 converted to Ki by Cheng-Prusoff. As for the experimental part: 5-HT6 Receptor Binding Assay
Growth of Cells and Membrane Preparation
Hela cells containing the cloned human 5-HT6 receptor were acquired from Dr. David R. Sibley's laboratory in National Institute of Health (see Sibley, D. R., J. Neurochemistry, 66, 47-56, 1996). Cells were grown in high glucose Dulbecco's modified Eagle's medium, supplemented with L-glutamine, 0.5% sodium pyruvate, 0.3% penicillin-streptomycin, 0.025% G-418 and 5% Gibco fetal bovine serum and then were harvested, when confluent, in cold phosphate-buffered saline.
Harvested intact cells were washed once in cold phosphate-buffered saline. The cells were pelleted and resuspended in 100 ml of cold 50 mM Tris, 5 mM EDTA and 5 mM EGTA, pH 7.4. Homogenization was with a Vir Tishear generator, 4 cycles for 30 seconds each at setting 50. The homogenized cells were centrifuged at 700 RPM (1000×g) for 10 minutes and the supernatant was removed. The pellet was resuspended in 100 ml of the above buffer and rehomogenized for 2 cycles. The rehomogenized cells were then centrifuged at 700 RPM (1000×g) for 10 minutes and the supernatant was removed. The combined supernatant (200ml) was centrifuged at 23,000 RPM (80,000×g) for 1 hour in a Beckman Rotor (42.1 Ti). The membrane pellet was resupended in 50-8-ml of assay buffer containing HEPES 20 mM, MgCl2 10 mM, NaCl 150 mM, EDTA 1 mM, pH 7.4 and stored frozen in aliqouts at −70° C.
The radioligand binding assay used [^3H]-lysergic acid diethylamide (LSD). The assay was carried out in Wallac 96-well sample plates by the addition of 11 μl of the test sample at the appropriate dilution (the assay employed 11 serial concentrations of samples run in duplicate), 11 μl of radioligand, and 178 μl of a washed mixture of WGA-coated SPA beads and membranes in binding buffer. The plates were shaken for about 5 minutes and then incubated at room temperature for 1 hour. The plates were then loaded into counting cassettes and counted in a Wallac MicroBeta Trilux scintillation counter.
Binding Constant (Ki) Determination
Eleven serial dilutions of test compounds were distributed to assay plates using the PE/Cetus Pro/Pette pipetter. These dilutions were, followed by radioligand and the bead-membrane mixture prepared as described above. The specifically bound cpm obtained were fit to a one-site binding model using GraphPad Prism ver. 2.0. Estimated IC50 values were converted to Ki values using the Cheng-Prusoff equation (Cheng, Y. C. et al., Biochem. Pharmacol., 22, 3099-108, 1973).

Where a name gives a salt, the structure may show the parent alone. A value given as a limit tells only on which side of the number the result lay.

T1 sequence (P50406 whole entry): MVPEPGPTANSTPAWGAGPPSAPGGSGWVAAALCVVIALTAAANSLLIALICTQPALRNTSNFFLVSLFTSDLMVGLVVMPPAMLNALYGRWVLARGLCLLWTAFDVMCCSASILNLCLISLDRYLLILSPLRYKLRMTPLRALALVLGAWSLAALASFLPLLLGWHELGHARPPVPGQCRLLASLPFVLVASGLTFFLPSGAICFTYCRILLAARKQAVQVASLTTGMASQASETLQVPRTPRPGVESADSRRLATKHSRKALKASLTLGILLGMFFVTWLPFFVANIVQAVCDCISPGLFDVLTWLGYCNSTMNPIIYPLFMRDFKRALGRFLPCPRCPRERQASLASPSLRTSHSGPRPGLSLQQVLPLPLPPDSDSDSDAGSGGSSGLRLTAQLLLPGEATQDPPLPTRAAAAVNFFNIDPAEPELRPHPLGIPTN

The molecule `CCN(CC)CCOc1cccc2c1c1cc(F)ccc1n2Cc1ccccc1` [Example 44, N-{2-[(9-Benzyl-6-fluoro-9H-carbazol-4-yl)oxy]ethyl}-N,N-diethylamine] came in with a melting point of 68 to 69 °C. Moreover, the inhibition constant Ki in data set [1] was 180 nM.
As for `CNCCOc1cccc2c1c1ccccc1n2Cc1ccccc1.O=C(O)/C=C\C(=O)O` [Example 34, N-{2-[(9-Benzyl-9H-carbazol-4-yl)oxy]ethyl}-N-methylamine], the melting point lay within 182.5 to 184.5 °C. Further, the Ki in data set [1] was 5.7 nM.
Take `Cc1nc(Cn2c3ccccc3c3c(OCCN)cccc32)cs1` (as salt: methane sulfonate) [Example 51, 2-({9-[(2-Methyl-1,3-thiazol-4-yl)methyl]-9H-carbazol-4-yl}oxy)ethylamine]: the melting point lay in the range of 228.5 to 229 °C.
`Cc1ccc2c(c1)c1c(OCCN)cccc1n2Cc1ccccc1.O=C(O)/C=C\C(=O)O` [Example 46, 2-[(9-Benzyl-6-methyl-9H-carbazol-4-yl)oxy]ethylamine] displayed a melting point of 187.5 to 188 °C. Also, the inhibitory constant (Ki) in data set [1] is 6.1 nM.
`NCCOc1cccc2c1c1ccccc1n2Cc1csc2ccc(Cl)cc12` (as salt: methane sulfonate) [Example 50, 2-({9-[(5-Chloro-1-benzothiophen-3-yl)methyl]-9H-carbazol-4-yl}oxy)ethylamine] gave a melting point of over 256 °C.
Turning to `NCCOc1cccc2c1c1cccc(F)c1n2Cc1ccccc1` [Example 41, 2-[(9-Benzyl-8-fluoro-9H-carbazol-4-yl)oxy]ethylamine], the melting point lay within 122.25 to 123 °C. For the same molecule, the Ki in data set [1] is 2.4 nM.
The corresponding values for `CCN(CC)CCOc1cccc2c1c1cccc(Cl)c1n2Cc1ccc(F)cc1` [Example 3, N-(2-{[8-Chloro-9-(4-fluorobenzyl)-9H-carbazol-4-yl]oxy}ethyl)-N,N-diethylamine] are 104.5 to 105.5 °C and 22 nM.
The molecule `CCN(CC)CCOc1cccc2c1c1cccc(Cl)c1n2Cc1ccccc1` [Example 2, N-{2-[(9-Benzyl-8-chloro-9H-carbazol-4-yl)oxy]ethyl}-N,N-diethylamine] yielded a melting point of 73.5 to 75 °C. The Ki in data set [1] was 6 nM.
The matching figures for `CCN(CC)CCOc1cccc2c1c1cccc(F)c1n2Cc1ccccc1` [Example 7, N-{2-[(9-Benzyl-8-fluoro-9H-carbazol-4-yl)oxy]ethyl}-N,N-diethylamine]: 60 to 60.5 °C and 2.6 nM.
In turn, `O=CNCCOc1cccc2c1c1ccccc1n2Cc1ccccc1` [Example 33, N-{2-[(9-benzyl-9H-carbazol-4-yl)oxy]ethyl}formamide] registered a melting point of 161 to 162 °C. In data set [1], the inhibition constant Ki is 211 nM.
`O=C(O)/C=C\C(=O)O.OCCNCCOc1cccc2c1c1ccccc1n2Cc1ccccc1` [Example 49, 2-({2-[(9-benzyl-9H-carbazol-4-yl)oxy]ethyl}amino)-1-ethanol]: the melting point came out at 160 °C. Further, the Ki in data set [1] was 4.5 nM.
The corresponding values for `COCCNCCOc1cccc2c1c1ccccc1n2Cc1ccccc1.O=C(O)/C=C\C(=O)O` [Example 36, N-{2-[(9-Benzyl-9H-carbazol-4-yl)oxy]ethyl}-N-(2-methoxyethyl)amine] are 175 to 175.5 °C and 16 nM.
The corresponding values for `CCN(CC)CCOc1cccc2c1c1ccccc1n2Cc1ccccc1` [Example 1, N-{2-[(9-Benzyl-9H-carbazol-4-yl)oxy]ethyl}-N,N-diethylamine] are 79 to 80.5 °C and 24 nM.
The corresponding values for `c1ccc(Cn2c3ccccc3c3c(OCCN4CCCCC4)cccc32)cc1` [Example 39, 9-Benzyl-4-[2-(1-piperidinyl)ethoxy]-9H-carbazole] are 113.5 to 114.5 °C and 12 nM.
Take `OCCOCCNCCOc1cccc2c1c1ccccc1n2Cc1ccccc1` [Example 23, 2-[2-({2-[(9-benzyl-9H-carbazol-4-yl)oxy]ethyl}amino)ethoxy]-1-ethanol]: the inhibition constant Ki in data set [1] is 32 nM.
Still for that read-out and setting: the figure for `Cc1cccc(Cn2c3ccccc3c3c(OCCN)cccc32)c1` [Example 59, 2-{[9-(3-Methylbenzyl)-9H-carbazol-4-yl]oxy}ethylamine] is 20 nM; for `NCCOc1cccc2c1c1ccccc1n2Cc1cccc(F)c1` [Example 54, 2-{[9-(3-Fluorobenzyl)-9H-carbazol-4-yl]oxy}ethylamine] it is 101 nM.
For `CNCCOc1cccc2c1c1cc(C)ccc1n2Cc1ccccc1` [Example 47, N-{2-[(9-Benzyl-6-methyl-9H-carbazol-4-yl)oxy]ethyl}-N-methylamine], the melting point lay within 96 to 96.75 °C. In addition, in data set [1], the inhibition constant (Ki) was 2.2 nM.
The corresponding values for `CCN(CC)CCOc1cccc2c1c1cc(Cl)ccc1n2Cc1ccccc1` [Example 43, N-{2-[(9-Benzyl-6-chloro-9H-carbazol-4-yl)oxy]ethyl}-N,N-diethylamine] are 96 to 97.5 °C and 182 nM.
`CCN(CC)CCOc1cccc2c1c1cccc(F)c1n2Cc1ccc(F)cc1` [Example 42, N,N-Diethyl-N-(2-{[8-fluoro-9-(4-fluorobenzyl)-9H-carbazol-4-yl]oxy}ethyl)amine]: the melting point lay within 59 to 60 °C. In data set [1], the Ki was 20 nM.
As to `NCCOc1c(Cl)ccc2c1c1ccccc1n2Cc1ccccc1` [Example 52, 2-[(9-Benzyl-3-chloro-9H-carbazol-4-yl)oxy]ethylamine], the inhibitory constant (Ki) in data set [1] was 24 nM.
As for `O=CNCCN1CCN(CCOc2cccc3c2c2ccccc2n3Cc2ccccc2)CC1` [Example 27, 2-(4-{2-[(9-benzyl-9H-carbazol-4-yl)oxy]ethyl}-1-piperazinyl)ethylformamide], in data set [1], the Ki is 138 nM.

Values taken from patent US6514968B1, “Aminoalkoxy carbazoles for the treatment of cns diseases” (Pharmacia & Upjohn Company, priority 1999, dated 2003).
